# pEC50: −log10 of the molar value. “Also recorded” adds a separate entry of the source.
# How the values were obtained:
# [1] = biological target: T1, PXR (Homo sapiens, UniProt O75469); assay: Coactivator SRC1-4 recruitment Lanthascreen PXR; format: biochemical; conditions: benchmark SR12813
# T1 sequence (O75469 146-433 limits assumed): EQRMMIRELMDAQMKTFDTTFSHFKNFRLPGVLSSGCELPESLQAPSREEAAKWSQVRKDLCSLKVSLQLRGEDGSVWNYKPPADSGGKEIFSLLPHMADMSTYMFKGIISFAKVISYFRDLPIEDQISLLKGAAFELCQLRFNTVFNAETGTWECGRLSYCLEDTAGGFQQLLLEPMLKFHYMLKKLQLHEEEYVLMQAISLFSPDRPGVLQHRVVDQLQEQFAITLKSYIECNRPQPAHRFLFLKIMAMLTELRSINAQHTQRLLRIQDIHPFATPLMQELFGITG
# [2] = test system: LXR; assay: Multiplex precision CRT (pCRT), SRC1 and NCOR2, LXR isoform not specified; format: biochemical; conditions: pCRT versus monoplex CRT
# [3] = test system: C57Bl/6 mice; set-up: method as in Miao et al., 2004; conditions: ref Miao et al., 2004, cited from earlier work
# [4] = test system: Hamsters; set-up: method as in Groot et al., 2005; conditions: ref Groot et al., 2005; cited from earlier work
# [5] = test system: cynomolgus monkeys; set-up: method as in Groot et al., 2005; conditions: ref Groot et al., 2005; cited from earlier work
# [6] = biological target: T2, LXRβ (Homo sapiens, UniProt P55055); assay: SRC-1 coactivator recruitment to LXRβ, coregulator TR-FRET (CRT); format: biochemical; set-up: The CRT selectivity assay incorporates GST-tagged LXR-LBD; purchased Thermo Fisher Scientific PV4660
# T2 sequence (P55055 222-460 limits assumed): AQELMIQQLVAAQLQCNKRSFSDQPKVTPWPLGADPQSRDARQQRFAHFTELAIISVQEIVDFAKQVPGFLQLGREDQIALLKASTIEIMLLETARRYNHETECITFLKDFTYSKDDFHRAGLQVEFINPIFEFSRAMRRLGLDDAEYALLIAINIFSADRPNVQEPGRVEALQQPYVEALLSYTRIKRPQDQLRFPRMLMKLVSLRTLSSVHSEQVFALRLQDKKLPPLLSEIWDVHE
# [7] = biological target: T3, LXRα (Homo sapiens, UniProt Q13133); assay: NCOR2 corepressor binding to LXRα, CRT; format: biochemical; set-up: The CRT selectivity assay incorporates GST-tagged LXR-LBD; purchased Thermo Fisher Scientific PV4657; conditions: for activity at 1 µM: ligand 1 µM, interpolated from concentration-response, normalized, heat map Figure 9A, read-out: NCOR2α, relative % activity at 1 μM
# T3 sequence (Q13133 209-447 limits assumed): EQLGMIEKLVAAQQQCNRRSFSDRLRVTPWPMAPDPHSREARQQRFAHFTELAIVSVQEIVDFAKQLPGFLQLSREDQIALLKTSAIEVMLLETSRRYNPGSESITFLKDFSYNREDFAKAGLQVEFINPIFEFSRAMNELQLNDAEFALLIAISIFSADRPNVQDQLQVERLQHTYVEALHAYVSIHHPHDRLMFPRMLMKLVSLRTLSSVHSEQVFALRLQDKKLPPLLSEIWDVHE
# [8] = biological target: T2, LXRβ; assay: NCOR2 corepressor binding to LXRβ, CRT; format: biochemical; set-up: The CRT selectivity assay incorporates GST-tagged LXR-LBD; purchased Thermo Fisher Scientific PV4660; conditions: for activity at 1 µM: read-out: NCOR2β, relative % activity at 1 μM
# [9] = biological target: T3, LXRα; assay: SMRT2 corepressor binding to LXRα, CRT; format: biochemical; set-up: The CRT selectivity assay incorporates GST-tagged LXR-LBD; purchased Thermo Fisher Scientific PV4657; conditions: ligand 1 µM, interpolated from concentration-response, normalized; heat map Figure 9A; read-out: SMRT2α, relative % activity at 1 μM
# [10] = biological target: T2, LXRβ; assay: SMRT2 corepressor binding to LXRβ, CRT; format: biochemical; set-up: The CRT selectivity assay incorporates GST-tagged LXR-LBD; purchased Thermo Fisher Scientific PV4660; conditions: read-out: SMRT2β, relative % activity at 1 μM
# [11] = biological target: T3, LXRα; set-up: The CRT selectivity assay incorporates GST-tagged LXR-LBD; purchased Thermo Fisher Scientific PV4657; method as in Albers et al., 2006; conditions: >1 µM; ref Albers et al., 2006; cited from earlier work
# [12] = test system: sterol response element (SRE); assay: SRE-luc reporter assay in HepG2 cells; format: cell-based, human; conditions: concentrations ≤1 µM
# In short: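 HepG2 cells stably carrying an SRE (LDLR) promoter–NlucP reporter, grown in medium with charcoal-stripped FBS. Treated with compounds for 24 hr at 37 °C, then lysed and nanoluciferase luminescence read.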
# [13] = test system: ABCA1; assay: ABCA1-luc reporter assay in CCF-STTG1 astrocytoma cells; format: cell-based, human
# Excerpt: Astrocytoma CCF-STTG1 cells, stably transfected with an ABCA1-promoter linked to a luciferase response element, provide a model for ABCA1 induction in astrocytes ([Ben Aissa et al., 2021]). […] Apparent inverse agonist activity in cell-based assays can result from ‘true’ inverse agonist recruitment of corepressors or from antagonist activity towards endogenous sterol LXR agonists. Although we use serum-stripped media, antagonism of endogenous LXR agonists cannot be ruled out.
# Low passage CCF-STTG1 cells (20,000 cells/well) were seeded in 96-well plates in media containing charcoal-stripped FBS and incubated at 37 °C and 5% CO2 for 24 hr prior to a 24 hr treatment. All compounds were dissolved in DMSO, and final DMSO concentrations never exceeded 1%. After a 24 hr incubation period, add a volume of ONE-GLOEX Reagent that is equal to the volume of culture medium in each well and incubate for 3–5 min on the shaker. The luminescent activity of compounds ([…], 10-fold dilution) was examined using the ONE-GLOEX assay (Promega). […] The assays were performed in duplicates for each concentration, and the EC50 values were determined from non-linear regression analysis of the dose-response curve generated in GraphPad Prism 9.
# [14] = test system: LXR; assay: Corepressor (NCOR2, SMRT2) binding to LXR, CRT, statements across isoforms; format: biochemical; conditions: monoplex CRT, absence of coactivator
# [15] = test system: human volunteers; conditions: 2016, cited from earlier work
# [16] = test system: LXR; set-up: method as in Belorusova et al., 2019; conditions: ref Belorusova et al., 2019; cited from earlier work
# [17] = biological target: T3, LXRα; assay: Multiplex precision CRT (pCRT), SRC1 and NCOR2, LXRα; format: biochemical; set-up: The CRT selectivity assay incorporates GST-tagged LXR-LBD; purchased Thermo Fisher Scientific PV4657; conditions: presence of SRC1, saturating ligand
# [18] = biological target: T2, LXRβ; assay: Multiplex precision CRT (pCRT), SRC1 and NCOR2, LXRβ; format: biochemical; set-up: The CRT selectivity assay incorporates GST-tagged LXR-LBD; purchased Thermo Fisher Scientific PV4660; conditions: presence of SRC1
# [19] = ligand 1 µM, interpolated from concentration-response, normalized, heat map Figure 9A
structure (smiles),measurement,setting,value
O=C(O)Cc1cccc(OCCCN(Cc2cccc(C(F)(F)F)c2Cl)CC(c2ccccc2)c2ccccc2)c1 [GW3965],PXR agonism/binding in CRT,[1],no binding to PXR
same,Left-shift in the NCOR2 displacement curve in presence of SRC1,[2],100 fold
same,Liver weight and TGs,"[3]; 3 days treatment, GW3965 even at 100 mg/kg/day",no effect on these liver markers
same,SREBP1c and FAS expression in the liver,[3]; 3 days treatment,minimal increases in SREBP1c and FAS expression in the liver
same,ABCA1 expression in peripheral macrophages,[3],sevenfold
same,ABCA1 expression in the small intestine,[3],eightfold
same,"Plasma TG, LDL-C and VLDL-C",[4],dose-dependent increase
same,"Plasma LDL, HDL and TG",[5],"increased LDL and HDL at 7 days treatment only, with no effect on TG"
same,"SRC1β, relative % activity at 1 μM",[6],95.64%
same,activity at 1 µM,[7],99.1%
same,Effect on NCOR2 binding to LXRα,"[7]; monoplex CRT, absence of SRC1",displacement of NCOR2 from both LXR isoforms
same,Effect on NCOR2 binding to LXRβ,"[8]; monoplex CRT, absence of SRC1",displacement of NCOR2 from both LXR isoforms
same,activity at 1 µM,[8],92.3%
same,activity at 1 µM,[9],92.4%
same,activity at 1 µM,[10],92.5%
same,Recruitment of NCOR1 to LXRα,[11],Weak recruitment of NCOR1 to LXRα
CC(C)(O)c1cn(-c2ccc(-c3cc(F)c(CO)c(S(C)(=O)=O)c3)cc2F)c(C(C)(C)c2c(Cl)cccc2Cl)n1 [XL041],Efficacy of SRE activation at concentrations ≤1 µM,[12],20–25 % of T0
same,Selectivity for ABCA1 induction versus SRE activation (potency correlation outliers),[13]; CCF ABCA1-luc versus HepG2 SRE-luc,selectivity for ABCA1 induction
same,ABCA1 induction response/phenotype in CCF cells,[13]; normalized to T0,partial agonist response
same,"Corepressor (NCOR2, SMRT2) displacement or stabilization, across LXR isoforms",[14],stabilized LXR complexes with corepressor bound; also recorded: strongly stabilized the corepressor-bound conformation
same,Cmax,"[15]; human, 2.5 mg/kg p.o., Day 14, ref Kirchgessner et al., read-out: Cmax, drug concentration in plasma",~30 nM
same,T½,"[15]; human, ref Kirchgessner et al.",≈ 13 hr
same,Adverse effects in clinical trials,"[15]; multi-day dosing, healthy and statin-treated subjects, ref Kirchgessner et al.",elevated plasma and liver lipids and neutropenia
same,ABCA1 expression in trial subjects,"[15]; ref Katz et al., 2009, Kirchgessner et al.",increased ABCA1 expression in trial subjects
same,Ligand behaviour in HDX-MS analysis (H12 conformation),[16],act as an antagonist
same,pEC50,"[6]; biotin-SRC-1 CRT, read-out: Potency (EC50) for SRC-1 recruitment to LXRβ",8.00
same,activity at 1 µM,[7],142%
same,activity at 1 µM,[8]; [19],129%
same,activity at 1 µM,[9],152%
same,activity at 1 µM,[10]; [19],153%
same,Maximal signal for NCOR2-bound LXRα in pCRT,[17],significantly higher than zero
same,NCOR2 displacement from LXRβ in pCRT,[18],fully displaced
